According to PubChem BioAssay AID330 (DTP/NCI, 2004):
Values joined by “and” are separate entries in the source; they are usually repeats but may differ in a detail not shown here. Equal values may be shown once. Inconclusive results and toxic doses are left out. How the source made its calls: active means survival T/C of 150% or more; inactive means T/C below 125% in these data.

Test system: P388 leukemia ip, CD2F1 mice, survival T/C
Assay: NCI In Vivo Anticancer Drug Screen. Data for tumor model P388 Leukemia (intraperitoneal) in CD2F1 (CDF1) mice
Conditions: endpoint: median survival time, higher = longer survival
Method in brief: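 Mice carrying the transplanted tumor received test compound or vehicle. Survival was recorded in each group, and the value is the treated-group measurement divided by that of the vehicle-treated control group.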

[1] = dose: 50.0 mg/kg/injection, schedule: Q01DX009 (ip), vehicle: saline
[2] = dose: 100.0 mg/kg/injection, schedule: Q01DX009 (ip), vehicle: saline
[3] = dose: 200.0 mg/kg/injection, schedule: Q01DX009 (ip), vehicle: saline
[4] = dose: 100.0 mg/kg/injection, schedule: Q04DX002 (ip), vehicle: saline
[5] = dose: 200.0 mg/kg/injection, schedule: Q04DX002 (ip), vehicle: saline
[6] = dose: 50.0 mg/kg/injection, schedule: Q01DX005 (ip), vehicle: saline with Tween-80
[7] = dose: 100.0 mg/kg/injection, schedule: Q01DX005 (ip), vehicle: saline with Tween-80
[8] = dose: 200.0 mg/kg/injection, schedule: Q01DX005 (ip), vehicle: saline with Tween-80

Measured: T/C

O=C([CH-]C(=O)C(F)(F)F)C(F)(F)F.O=C([CH-]C(=O)C(F)(F)F)C(F)(F)F.O=C([CH-]C(=O)C(F)(F)F)C(F)(F)F.[Ru+3]
inactive: dose: 7.5 mg/kg/injection, schedule: Q01DX005 (ip), vehicle: Klucel (hydroxypropylcellulose) (HPC) 97 % of control | dose: 15.0 mg/kg/injection, schedule: Q01DX005 (ip), vehicle: Klucel (hydroxypropylcellulose) (HPC) 87 % of control

O=C(O)CNCCCCCCNCC(=O)O
inactive: dose: 50.0 mg/kg/injection, schedule: Q01DX005 (ip), vehicle: saline 98 % of control | dose: 100.0 mg/kg/injection, schedule: Q01DX005 (ip), vehicle: saline 103 % of control | dose: 200.0 mg/kg/injection, schedule: Q01DX005 (ip), vehicle: saline 106 % of control

CC(CSc1ccccc1)C(Sc1ccccc1)Sc1ccccc1 (stereo not drawn)
inactive: [1] 102 % of control | [2] 98 % of control | [3] 106 % of control

CN1OC2(CCCCC2)n2c(=O)c3ccccc3c(=O)n2C1c1ccccc1 (stereo not drawn)
inactive: [1] 100 % of control | [2] 100 % of control | [3] 95 % of control

O=C1CS(=O)(=O)C(c2cccs2)N1CCN1C(=O)CS(=O)(=O)C1c1cccs1 (stereo not drawn)
inactive: dose: 100.0 mg/kg/injection, schedule: Q04DX002 (ip), vehicle: saline with Tween-80 97 % of control and 94 % of control | dose: 200.0 mg/kg/injection, schedule: Q04DX002 (ip), vehicle: saline with Tween-80 94 % of control and 93 % of control | dose: 400.0 mg/kg/injection, schedule: Q04DX002 (ip), vehicle: saline with Tween-80 92 % of control and 90 % of control

CN(C)CC[CH2][Sn]([CH3])([Br])[Br]
inactive: dose: 1.56 mg/kg/injection, schedule: Q01DX009 (ip), vehicle: saline 100 % of control and 101 % of control

CCc1c(O)c(C(C)=O)c(S)[nH]c1=O
inactive: dose: 60.0 mg/kg/injection, schedule: Q01DX005 (ip), vehicle: Klucel (hydroxypropylcellulose) (HPC) 101 % of control and 88 % of control | dose: 120.0 mg/kg/injection, schedule: Q01DX005 (ip), vehicle: Klucel (hydroxypropylcellulose) (HPC) 102 % of control | dose: 240.0 mg/kg/injection, schedule: Q01DX005 (ip), vehicle: Klucel (hydroxypropylcellulose) (HPC) 114 % of control and 87 % of control

CSc1nc2ccc(N=Cc3ccc([N+](=O)[O-])cc3)cc2s1
inactive: dose: 50.0 mg/kg/injection, schedule: Q01DX009 (ip), vehicle: Klucel (hydroxypropylcellulose) (HPC) 98 % of control | dose: 100.0 mg/kg/injection, schedule: Q01DX009 (ip), vehicle: Klucel (hydroxypropylcellulose) (HPC) 86 % of control | dose: 200.0 mg/kg/injection, schedule: Q01DX009 (ip), vehicle: Klucel (hydroxypropylcellulose) (HPC) 87 % of control and 92 % of control

COCOc1cc(OCc2ccccc2)ccc1C(=O)/C=C/c1cc2c(cc1OCc1ccccc1)OCO2
inactive: dose: 100.0 mg/kg/injection, schedule: Q01DX001 (ip), vehicle: Klucel (hydroxypropylcellulose) (HPC) 105 % of control | dose: 200.0 mg/kg/injection, schedule: Q01DX001 (ip), vehicle: Klucel (hydroxypropylcellulose) (HPC) 102 % of control | dose: 400.0 mg/kg/injection, schedule: Q01DX001 (ip), vehicle: Klucel (hydroxypropylcellulose) (HPC) 105 % of control

CC(C)C=C1[C@H](O)CC[C@@H]1O
inactive: [4] 101 % of control | [5] 101 % of control | dose: 400.0 mg/kg/injection, schedule: Q04DX002 (ip), vehicle: saline 96 % of control

CC1C(c2ccccc2)=Nn2c(=O)n(-c3ccccc3)c(=O)n21 (stereo not drawn)
inactive: dose: 25.0 mg/kg/injection, schedule: Q01DX009 (ip), vehicle: other 90 % of control | dose: 50.0 mg/kg/injection, schedule: Q01DX009 (ip), vehicle: other 91 % of control | dose: 100.0 mg/kg/injection, schedule: Q01DX009 (ip), vehicle: other 91 % of control | dose: 200.0 mg/kg/injection, schedule: Q01DX009 (ip), vehicle: other 89 % of control | dose: 400.0 mg/kg/injection, schedule: Q01DX009 (ip), vehicle: other 86 % of control

O=C(NCCNC(=O)C12CC3CC(CC(C3)C1)C2)C12CC3CC(CC(C3)C1)C2
inactive: dose: 6.0 mg/kg/injection, schedule: Q01DX005 (ip), vehicle: Klucel (hydroxypropylcellulose) (HPC) 88 % of control | dose: 12.0 mg/kg/injection, schedule: Q01DX005 (ip), vehicle: Klucel (hydroxypropylcellulose) (HPC) 88 % of control | dose: 100.0 mg/kg/injection, schedule: Q01DX001 (ip), vehicle: saline with Tween-80 94 % of control | dose: 200.0 mg/kg/injection, schedule: Q01DX001 (ip), vehicle: saline with Tween-80 95 % of control | dose: 400.0 mg/kg/injection, schedule: Q01DX001 (ip), vehicle: saline with Tween-80 86 % of control

Fc1ccc2[nH]c3ncccc3c2c1
inactive: [6] 106 % of control | [7] 105 % of control | [8] 100 % of control

O=C1NC(c2cccc3ccccc23)Nc2ccc(O)cc21 (stereo not drawn)
inactive: dose: 8.75 mg/kg/injection, schedule: Q01DX005 (ip), vehicle: DMSO 102 % of control | dose: 17.5 mg/kg/injection, schedule: Q01DX005 (ip), vehicle: DMSO 100 % of control | dose: 35.0 mg/kg/injection, schedule: Q01DX005 (ip), vehicle: DMSO 102 % of control | dose: 70.0 mg/kg/injection, schedule: Q01DX005 (ip), vehicle: DMSO 98 % of control | dose: 140.0 mg/kg/injection, schedule: Q01DX005 (ip), vehicle: DMSO 100 % of control

CC(=O)O.CC(=O)O.CC(=O)O.CC(=O)O.O=C(O)C1C[N-]CC(C(=O)O)C1.O=C(O)C1C[N-]CC(C(=O)O)C1.[Cu+].[Cu+] (stereo not drawn)
inactive: dose: 3.12 mg/kg/injection, schedule: Q01DX005 (ip), vehicle: suspension in saline 95 % of control | dose: 6.25 mg/kg/injection, schedule: Q01DX005 (ip), vehicle: suspension in saline 99 % of control | dose: 12.5 mg/kg/injection, schedule: Q01DX005 (ip), vehicle: suspension in saline 94 % of control

COc1cccc2c1CCC(=O)C2C (stereo not drawn)
inactive: dose: 50.0 mg/kg/injection, schedule: Q01DX005 (ip), vehicle: Klucel (hydroxypropylcellulose) (HPC) 107 % of control | dose: 100.0 mg/kg/injection, schedule: Q01DX005 (ip), vehicle: Klucel (hydroxypropylcellulose) (HPC) 100 % of control | dose: 200.0 mg/kg/injection, schedule: Q01DX005 (ip), vehicle: Klucel (hydroxypropylcellulose) (HPC) 104 % of control

CCn1c2nc(=O)[nH]c(=O)c-2cc2ccccc21
inactive: dose: 45.0 mg/kg/injection, schedule: Q01DX009 (ip), vehicle: saline with Tween-80 113 % of control | dose: 90.0 mg/kg/injection, schedule: Q01DX009 (ip), vehicle: saline with Tween-80 103 % of control | dose: 180.0 mg/kg/injection, schedule: Q01DX009 (ip), vehicle: saline with Tween-80 101 % of control

CCCCCN(CCCCC)CC(O)c1ccc(Cl)c2ccccc12 (stereo not drawn)
inactive: [6] 103 % of control | [7] 106 % of control | [8] 103 % of control

CCCCn1cnc2c(cnn2C)c1=N
inactive: [4] 97 % of control | [5] 97 % of control

CC(=O)Oc1cc2c(cc1OC(C)=O)C(=O)CCC=C2
inactive: dose: 100.0 mg/kg/injection, schedule: Q04DX003 (ip), vehicle: saline sonified 110 % of control | dose: 200.0 mg/kg/injection, schedule: Q04DX003 (ip), vehicle: saline sonified 100 % of control | dose: 400.0 mg/kg/injection, schedule: Q04DX003 (ip), vehicle: saline sonified 100 % of control

O=C(CSc1ccccn1)C1=S=C2C=CC=CN2C1=O
inactive: [6] 92 % of control | [7] 95 % of control | [8] 93 % of control

CC(=O)OCC1OC(n2cc(F)c(=O)[nH]c2=O)CC1OC(C)=O (stereo not drawn)
inactive: dose: 50.0 mg/kg/injection, schedule: Q01DX009 (ip), vehicle: saline with Tween-80 100 % of control | dose: 100.0 mg/kg/injection, schedule: Q01DX009 (ip), vehicle: saline with Tween-80 118 % of control | dose: 200.0 mg/kg/injection, schedule: Q01DX009 (ip), vehicle: saline with Tween-80 86 % of control
